Laboratory results reported in patent US8653096B2, “Chemokine receptor antagonists and methods of use thereof” (Millennium Pharmaceuticals, Inc., priority 2001, dated 2014).

target: T1, RANTES/MIP-1α chemokine receptor (CCR1) in THP-1 cell membranes (Homo sapiens, UniProt P32246); experiment: Receptor binding assay: 125I-RANTES or 125I-MIP-1α binding to THP-1 cell membranes; settings: inhibitor concentration required for 50% inhibition of specific binding; 125I-RANTES or 125I-MIP-1α as ligand, THP-1 cell membranes; read-out: IC50
T1 construct: Membranes were prepared from THP-1 cells (ATCC #TIB202); host or cells: THP-1 cells (membrane preparation)
T1 sequence (P32246 1-355): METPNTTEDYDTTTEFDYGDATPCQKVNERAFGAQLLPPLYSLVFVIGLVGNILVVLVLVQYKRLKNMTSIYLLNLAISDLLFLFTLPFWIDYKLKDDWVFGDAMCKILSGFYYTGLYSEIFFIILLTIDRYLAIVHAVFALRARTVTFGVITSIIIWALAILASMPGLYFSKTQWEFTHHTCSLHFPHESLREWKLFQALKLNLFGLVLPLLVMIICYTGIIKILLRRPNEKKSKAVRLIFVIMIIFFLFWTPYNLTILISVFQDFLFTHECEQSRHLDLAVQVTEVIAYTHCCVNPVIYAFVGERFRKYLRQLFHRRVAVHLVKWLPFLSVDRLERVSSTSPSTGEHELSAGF

Row | SMILES | IC50
1 | CC(C)(C)OC(=O)CN1C(=O)c2ccccc2C(=CCCN2CCC(O)(c3ccc(Cl)cc3)CC2)c2ccccc21 [Example 43, 1-[3-(5-tert-Butoxycarbonymethyl-6,11-dihydro-6-oxo-5H-dibenz[b,e]azepin-11-ylidene)propyl]-4-(4-chlorophenyl)-piperidin-4-ol] | < 10000 nM
2 | O=C1Nc2ncccc2C(=CCCN2CCC(O)(c3ccc(Cl)cc3)CC2)c2ccccc21 [Example 55, 4-(4-Chlorophenyl)-1-[3-(10,11-dihydro-10-oxo-5H-pyrido[2,3-c][2]benzazepin-5-ylidene)propyl]piperidin-4-ol] | < 1000 nM
3 | CN1C(=O)c2ccccc2C(=CCCN2CCC(O)(c3ccc(Cl)cc3)CC2)c2cccnc21 [Example 56, 4-(4-Chlorophenyl)-1-[3-(10,11-dihydro-11-methyl-10-oxo-5H-pyrido[2,3-c][2]benzazepin-5-ylidene)propyl]piperidin-4-ol] | < 1000 nM
4 | COc1ccc2c(c1)C(=CCN1CCC(O)(c3ccc(Cl)cc3)CC1)c1cccnc1CO2 [Example 57, 4-(4-Chlorophenyl)-1-[3-(5,11-dihydro-7-methoxy[1]benzoxepino [2,3-b]pyridin-5-ylidene)ethyl]piperidin-4-ol] | < 10000 nM
5 | COc1ccc2c(c1)C(=CCCN1CCC(O)(c3ccccc3)CC1)c1cccnc1CO2 [Example 59, 1-[3-(5,11-Dihydro-7-methoxy[1]benzoxepino[2,3-b]pyridin-5-ylidene)propyl]piperidin-4-phenyl-4-ol] | < 1000 nM
6 | COc1ccc2c(c1)C(=CCCN1CCC(n3c(=O)[nH]c4ccccc43)CC1)c1cccnc1CO2 [Example 67, 1-[3-(5,11-Dihydro-7-methoxy[1]benzoxepino[2,3-b]pyridin-5-ylidene)propyl]-4-(2-keto-1-benzimidazolinyl)piperidine] | < 1000 nM
7 | COc1ccc2c(c1)C(=CCCN1CCC(n3c(=O)n(C)c4ccccc43)CC1)c1cccnc1CO2 [Example 68, 1-[3-(5,11-Dihydro-7-methoxy[1]benzoxepino[2,3-b]pyridin-5-ylidene)propyl]-4-(2-keto-3-methyl-1-benzimidazolinyl)piperidine] | < 10000 nM
8 | COc1ccc2c(c1)C(=CCCN1CCC(O)(c3ccc(C)cc3)CC1)c1cccnc1CO2 [Example 78, 1-[3-(5,11-Dihydro-7-methoxy[1]benzoxepino[2,3-b]pyridin-5-ylidene)propyl]-4-(p-toly)piperidin-4-ol] | < 1000 nM
9 | COc1ccc2c(c1)C(=CCCN1CCN(S(=O)(=O)c3ccc(C)cc3)CC1)c1cccnc1CO2 [Example 89, 1-[3-(5,11-Dihydro-7-methoxy[1]benzoxepino[2,3-b]pyridin-5-ylidene)propyl]-4-(p-tosyl)piperazine] | > 10000 nM
10 | CN(C)CCOc1ccc2c(c1)C(=CCCN1CCC(O)(c3ccc(Cl)cc3)CC1)c1cccnc1CO2 [Example 131] | < 1000 nM
11 | OC1(c2ccc(Cl)cc2)CCN(CCC=C2c3cc(OCc4nnn[nH]4)ccc3OCc3ncccc32)CC1 [Example 132] | < 1000 nM
12 | CCOC(=O)COc1ccc2c(c1)C(=CCCN1CCC(c3ccc(Cl)cc3)CC1)c1cccnc1CO2 [Example 153, 4-(4-Chlorophenyl)-1-[3-(5,11-dihydro-7-thoxycarbonylmethyloxy[1]benzoxepino[2,3-b]pyridin-5-ylidene)propyl]piperidine] | < 1000 nM
13 | O=C(O)COc1ccc2c(c1)C(=CCCN1CCC(c3ccc(Cl)cc3)CC1)c1cccnc1CO2 [Example 154] | < 1000 nM
14 | COCCOc1ccc2c(c1)C(=CCCN1CCC(O)(c3ccc(Cl)cc3)CC1)c1cccnc1CO2 [Example 175] | < 1000 nM
15 | CN(C)C(=O)C(C)(C)Oc1ccc2c(c1)C(=CCCN1CCC(O)(c3ccc(Cl)cc3)CC1)c1cccnc1CO2 [Example 176, 4-(4-Chlorophenyl)-1-[3-(7-(1-dimethyaminocarbonyl-1-methyl)ethyloxy-5,11-dihydro[1]benzoxepino[2,3-b]pyridin-5-ylidene)propyl]piperidin-4-ol] | < 1000 nM
16 | O=C(O)C1(Oc2ccc3c(c2)C(=CCCN2CCC(O)(c4ccc(Cl)cc4)CC2)c2cccnc2CO3)CCC1 [Example 180, 1-[3-(7-(1-Carboxy)cyclbutoxy-5,11-dihydro[1]benzoxepino[2,3-b]pyridin-5-ylidene)propyl]-4-(4-chlorophenyl)piperidin-4-ol] | < 1000 nM
17 | Oc1ccc2c(c1)C(=CCCN1CC=C(c3ccc(Cl)cc3)CC1)c1cccnc1CO2 [Example 193] | < 1000 nM

Row | SMILES | IC50
18 | CC(C)(CO)Oc1ccc2c(c1)C(=CCCN1CCC(O)(c3ccc(Cl)cc3)CC1)c1cccnc1CO2 [Example 199, 4-(4-Chlorophenyl)-1-[3-(7-(2-(1-hydroxy-2-methyl)propyl)oxy-5,11-dihydro[1]benzoxepino[2,3-b]pyridin-5-ylidene)propyl]piperidin-4-ol] | < 1000 nM
19 | CC(C)(O)COc1ccc2c(c1)C(=CCCN1CCC(O)(c3ccc(Cl)cc3)CC1)c1cccnc1CO2 [Example 200, 4-(4-Chlorophenyl)-1-[3-(7-(1-(2-methyl-2-hydroxy)propyl)oxy-5,11-dihydro[1]benzoxepino[2,3-b]pyridin-5-ylidene)propyl]piperidin-4-ol] | < 1000 nM
20 | CCOCCOc1ccc2c(c1)C(=CCCN1CCC(O)(c3ccc(Cl)cc3)CC1)c1cccnc1CO2 [Example 203] | < 1000 nM
21 | OCC(O)COc1ccc2c(c1)C(=CCCN1CCC(O)(c3ccc(Cl)cc3)CC1)c1cccnc1CO2 (stereo not drawn) [Example 205, 4-(4-Chlorophenyl)-1-[3-(5,11-dihydro-7-(1-(2,3-dihydroxy)propyloxy)[1]benzoxepino[2,3-b]pyridin-5-ylidene)propyl]piperidin-4-ol] | < 1000 nM
22 | CC(C)(Oc1ccc2c(c1)C(=CCCN1CCC(O)(c3ccc(Cl)cc3)CC1)c1cccnc1CO2)C(N)=O [Example 211, 1-[3-(7-(1-Carbamoyl-1-methyl)ethyloxy-5,11-dihydro [1]benzoxepino[2,3-b]pyridin-5-ylidene)propyl]-4-(4-chlorophenyl)piperidin-4-ol] | < 1000 nM
23 | CNC(=O)C(C)(C)Oc1ccc2c(c1)C(=CCCN1CCC(O)(c3ccc(Cl)cc3)CC1)c1cccnc1CO2 [Example 212, 4-(4-Chlorophenyl)-1-[3-(5,11-dihydro-7-(1-methylaminocarbonyl-1-methyl)ethyloxy[1]benzoxepino[2,3-b]pyridin-5-ylidene)propyl]piperidin-4-ol] | < 1000 nM
24 | CN(C)C(=O)C=Cc1ccc2c(c1)C(=CCCN1CCC(O)(c3ccc(Cl)cc3)CC1)c1cccnc1CO2 [Example 215, 4-(4-Chlorophenyl)-1-[3-(7-(2-dimethylaminocarboxy)ethenyl-5,11-dihydro[1]benzoxepino[2,3-b]pyridin-5-ylidene)propyl]piperidin-4-ol] | < 1000 nM
25 | CC(C)(O)c1ccc2c(c1)C(=CCCN1CCC(O)(c3ccc(Cl)cc3)CC1)c1cccnc1CO2 [Example 242, 4-(4-Chlorophenyl)-1-[3-(5,11-dihydro-7-(1-hydroxy-1-methyl)ethyl[1]benzoxepino[2,3-b]pyridin-5-ylidene)propyl]piperidin-4-ol] | < 1000 nM
26 | COc1ccc2c(c1)C(=CCCN1CCOC(c3ccc(Cl)cc3)OCC1)c1cccnc1CO2 [Example 249, 5-(4-Chlorophenyl)-1-[3-(5,11-dihydro-7-methoxy[1]benzoxepino[2,3-b]pyridin-5-ylidene)propyl]-4,6-dioxazacane] | < 1000 nM
27 | CC(C)(Oc1ccc2c(c1)C(=CCC[N+]1(C)CCC(O)(c3ccc(Cl)cc3)CC1)c1cccnc1CO2)C(N)=O (stereo not drawn) [Example 262, 1-[3-(7-(1-Carbamoyl-1-methyl)ethyloxy-5,11-dihydro[1]benzoxepino[2,3-b]pyridin-5-ylidene)propyl]-4-(4-chlorophenyl)-4-hydroxy-1-methylpiperidinium iodide] | < 1000 nM
28 | COC(=O)c1ccc2c(c1)C(=CCCN1CCC(O)(c3ccc(Cl)cc3)CC1)c1cccnc1CO2 [Example 273] | < 1000 nM
29 | OC1(c2ccc(Cl)cc2)CCN(CCC=C2c3cc(CN4CCOCC4)ccc3OCc3ncccc32)CC1 [Example 278, 4-(4-Chlorophenyl)-1-[3-(5,11-dihydro-7-(4-morpholino)methyl[1]benzoxepino[2,3-b]pyridin-5-ylidene)propyl]piperidin-4-ol] | < 1000 nM
30 | OCCCc1ccc2c(c1)C(=CCCN1CCC(O)(c3ccc(Cl)cc3)CC1)c1cccnc1CO2 [Example 289, 4-(4-Chlorophenyl)-1-[3-(7-(1-(3-hydroxy)propyl)-5,11-dihydro[1]benzoxepino[2,3-b]pyridin-5-ylidene)propyl]piperidin-4-ol] | < 1000 nM
31 | CCOC(=O)[C@H]1CCCN(NC(=O)c2ccc3c(c2)C(=CCCN2CCC(O)(c4ccc(Cl)cc4)CC2)c2cccnc2CO3)C1 [Example 422, 4-(4-Chlorophenyl)-1-[3-(5,11-dihydro-7-(S-3-ethoxycarbonyl-piperidine-1-yl)-carbamoyl-[1]benzoxepino[2,3-b]pyridin-5-ylidene)propyl]piperidine-4-ol] | < 1000 nM
32 | O=C(OCCN1CCOCC1)c1ccc2c(c1)C(=CCCN1CCC(O)(c3ccc(Cl)cc3)CC1)c1cccnc1CO2 [Example 430, 4-(4-Chlorophenyl)-1-[3-(5,11-dihydro-7-(2-morpholinoethyl-1-yl)-oxycarbonyl-[1]benzoxepino[2,3-b]pyridin-5-ylidene)propyl]piperidine-4-ol] | < 1000 nM
33 | CCN(CC)CCOC(=O)c1ccc2c(c1)C(=CCCN1CCC(O)(c3ccc(Cl)cc3)CC1)c1cccnc1CO2 [Example 431, 4-(4-Chlorophenyl)-1-[3-(5,11-dihydro-7-(2,2-diethylaminoethyl-1-yl)-oxycarbonyl-[1]benzoxepino[2,3-b]pyridin-5-ylidene)propyl]piperidine-4-ol] | < 1000 nM
